According to paper PMC4519859, “Synthesis and Biological Evaluation of Novel Dehydroabietic Acid Derivatives Conjugated with Acyl-Thiourea Peptide Moiety as Antitumor Agents” (International Journal of Molecular Sciences, 2015):

Experiments:
HeLa cells [1] = experiment: JC-1 mitochondrial membrane potential staining; type: cell-based, human; details: 10 μM, 12 and 24 h
Text: Apoptosis plays an important role in cancer, since its induction in tumor cells is essential for successful treatment. Mitochondria play key roles in apoptosis through the release of pro-apoptotic factors such as cytochrome c and apoptosis-inducing factor [19, 20]. In order to further investigate the apoptosis-inducing effect of target compound 9n, mitochondrial membrane potential changes were designed and detected, using the fluorescent probe JC-1. […] In the control cells, JC-1 could aggregate in mitochondria and present high red fluorescence. However, in cells undergoing apoptosis, where the mitochondrial potential has collapsed, JC-1 exists in the cytosol as a monomer that emits green fluorescence. HeLa cells treated with compound 9n at 10 μM from 12 to 24 h were stained with JC-1 and cells not treated with the compound 9n were used as control for 24 h. […]
General procedure for mitochondrial membrane potential staining: JC-1 probe was employed to measure mitochondrial depolarization in […]. […] Mitochondrial membrane potentials were monitored by determining the relative amounts of dual emissions from mitochondrial JC-1 monomers or aggregates using an Nikon ECLIPSETE2000-S fluorescent microscope. Mitochondrial depolarization is indicated by an increase in the green/red fluorescence intensity ratio.

HeLa cells [2] = experiment: Annexin V/PI apoptosis flow cytometry; type: cell-based, human; details: 12 h, control 1.521%
Protocol: Annexin V/PI staining was performed to distinguish apoptotic and necrotic cell deaths. The apoptosis ratios induced by compound 9n in HeLa cells were quantitatively determined by flow cytometry (Figure 5). […] Apoptosis ratios (including the early and late apoptosis ratios) for compound 9n were obtained after 12 h of treatment at the concentration of 10 and 15 μM. The apoptosis of HeLa cells treated with target compound 9n increased gradually in a concentration manner. […] The results illustrated that target compound 9n suppressed cell proliferation by inducing apoptosis.
General procedure apoptosis ratios: Prepared HeLa cells (1 × 10^6 cells/mL) were washed twice with cold PBS and then re-suspended gently in 500 μL of binding buffer. Thereafter, cells were stained in 5 μL of Annexin V-FITC and shaken well. Finally, the cells were mixed with 5 μL of PI, incubated for 20 min in the dark and subsequently analyzed using FACSCalibur (Becton Dickinson, Franklin Lakes, NJ, USA).

MGC-803 = experiment: MTT cytotoxicity assay, MGC-803; type: cell-based; details: Homo sapiens, 48 h, mean ± SD, three independent experiments
Protocol: The in vitro cytotoxic potency of DHAA acyl-thiourea derivatives 8a–8o and 9a–9o were evaluated by 3-(4,5-dimethylthiazol-2-yl)-2,5-diphenyltetrazolium bromide (MTT) assay against HeLa, SK-OV-3 and MGC-803 tumor cell lines, with 5-FU as the positive control.
General procedure for cytotoxic evaluation in vitro: HeLa, HepG2, SK-OV-3 and MGC-803 cells were seeded into 96-well microculture plates and allowed to adhere for 24 h, respectively. After cells were exposed to compounds at concentrations from 100 to 0.01 μM for 48 h, medium was aspirated and replenished with complete medium. IC50 was evaluated by MTT tetrazolium dye assay. Each experiment was performed three times; Statistical analysis: All statistical analysis was performed with SPSS Version 10 (SPSS, Chicago, IL, USA). Data was analyzed by one-way ANOVA. Mean separations were performed using the least significant difference method. Each experiment was replicated thrice, and all experiments yielded similar results. Measurements from all the replicates were combined, and treatment effects were analyzed.

HeLa cells [3] = experiment: Cell cycle distribution by PI flow cytometry; type: cell-based, human; details: 10, 15 μM, 48 h
Protocol: Many anticancer drugs interact with cells leading to cell growth arrest. To determine the possible role of cell cycle arrest in DHAA derivative induced growth inhibition, HeLa cells were treated with different concentrations of compound 9n. Cell cycle distribution was investigated by flow cytometric analysis after staining of the DNA with propidium iodide (PI).
General procedure cell cycle: HeLa cells were maintained in Dulbecco’s modified Eagle’s medium with 10% fetal calf serum in 5% CO2 at 37 °C. Cells were harvested by trypsinization and rinsed with PBS. After centrifugation, the pellet (10^5–10^6 cells) was suspended in 1 mL of PBS and kept on ice for 5 min. The cell suspension was then fixed by the drop-wise addition of 9 mL precooled (4 °C) 75% ethanol with violent shaking. Fixed samples were kept at 4 °C until use. For staining, cells were centrifuged, resuspended in PBS, digested with 500 μL of RNase A (250 mg/mL), and treated with 25 μL of propidium iodide (PI) (0.15 mM), then incubated for 30 min at 4 °C. PI-positive cells were counted with a FACScan Fluorescence-activated cell sorter (FACS). The population of cells in each cell-cycle phase was determined using Cell Modi FIT software (Becton Dickinson).

**Q.** Which “mitochondrial membrane potential change (JC-1)” value (HeLa cells [1]) does the source give for `CC(C)c1ccc2c(c1)CCC1[C@](C)(C(=O)NC(=S)N[C@H](Cc3ccccc3)C(=O)Nc3ccccn3)CCC[C@]21C` (stereo partly drawn) [Compound 9n, (1R,4aS)-7-Isopropyl-1,4a-dimethyl-N-(((R)-1-oxo-3-phenyl-1-(pyridin-2-ylamino)propan-2-yl)carbamothioyl)-1,2,3,4,4a,9,10,10a-octahydrophenanthrene-1-carboxamide] here?
**A.** strong green fluorescence

**Q.** And the “apoptosis ratio (early and late)” value (HeLa cells [2]; 10 μM)?
**A.** 21.11%

**Q.** What about the “apoptosis ratio (early and late)” value (HeLa cells [2]; 15 μM) of the same compound?
**A.** 42.75%

**Q.** What about the IC50 (MGC-803) of the same compound?
**A.** 16.9 ± 1.56 µM

**Q.** And the cell cycle arrest (HeLa cells [3])?
**A.** mainly arrested HeLa cells in the S stage
